Measurements reported in ChEMBL document CHEMBL4251747 (Bioorg Med Chem, 2018).

Legend:
[1] = Solubility of the compound; format: physicochemical
Aurora kinase A = target: T1, Aurora kinase A (Homo sapiens, UniProt O14965); test: Inhibition of full length N-terminal His-tagged Aurora A (unknown origin) using fluorescence-labeled FL-Peptide 21 as substrate after 60 mins in presence of ATP by fluorescence assay based Cheng-Prusoff equation analysis
T1 sequence (O14965 whole entry): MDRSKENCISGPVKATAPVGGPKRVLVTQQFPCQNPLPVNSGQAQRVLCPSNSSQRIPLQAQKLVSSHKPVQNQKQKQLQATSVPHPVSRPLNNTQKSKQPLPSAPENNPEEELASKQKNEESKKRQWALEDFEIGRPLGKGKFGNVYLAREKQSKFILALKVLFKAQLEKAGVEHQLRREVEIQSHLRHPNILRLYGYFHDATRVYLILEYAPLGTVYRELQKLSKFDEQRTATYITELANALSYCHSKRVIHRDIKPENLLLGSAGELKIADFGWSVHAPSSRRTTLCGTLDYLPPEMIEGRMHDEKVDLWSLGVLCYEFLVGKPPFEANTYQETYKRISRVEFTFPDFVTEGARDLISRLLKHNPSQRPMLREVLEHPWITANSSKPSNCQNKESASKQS

[2] = target: Aurora kinase B/Inner centromere protein (Homo sapiens, UniProt Q96GD4); test: Inhibition of human full length N-terminal GST-tagged Aurora B (1 to 344 end residues)/His-tagged INCENP (803 to 918 end residues) expressed in baculovirus expression system using fluorescence-labeled FL-Peptide 21 as substrate after 60 mins in presence of ATP by fluorescence assay based Cheng-Prusoff equation analysis
[3] = target: T2, Dual specificity protein kinase TTK (Homo sapiens, UniProt P33981); test: Inhibition of full length human Mps1 using fluorescence-labeled H236 peptide as substrate after 60 to 90 mins in presence of ATP by fluorescence assay based Cheng-Prusoff equation analysis
T2 sequence (P33981 whole entry): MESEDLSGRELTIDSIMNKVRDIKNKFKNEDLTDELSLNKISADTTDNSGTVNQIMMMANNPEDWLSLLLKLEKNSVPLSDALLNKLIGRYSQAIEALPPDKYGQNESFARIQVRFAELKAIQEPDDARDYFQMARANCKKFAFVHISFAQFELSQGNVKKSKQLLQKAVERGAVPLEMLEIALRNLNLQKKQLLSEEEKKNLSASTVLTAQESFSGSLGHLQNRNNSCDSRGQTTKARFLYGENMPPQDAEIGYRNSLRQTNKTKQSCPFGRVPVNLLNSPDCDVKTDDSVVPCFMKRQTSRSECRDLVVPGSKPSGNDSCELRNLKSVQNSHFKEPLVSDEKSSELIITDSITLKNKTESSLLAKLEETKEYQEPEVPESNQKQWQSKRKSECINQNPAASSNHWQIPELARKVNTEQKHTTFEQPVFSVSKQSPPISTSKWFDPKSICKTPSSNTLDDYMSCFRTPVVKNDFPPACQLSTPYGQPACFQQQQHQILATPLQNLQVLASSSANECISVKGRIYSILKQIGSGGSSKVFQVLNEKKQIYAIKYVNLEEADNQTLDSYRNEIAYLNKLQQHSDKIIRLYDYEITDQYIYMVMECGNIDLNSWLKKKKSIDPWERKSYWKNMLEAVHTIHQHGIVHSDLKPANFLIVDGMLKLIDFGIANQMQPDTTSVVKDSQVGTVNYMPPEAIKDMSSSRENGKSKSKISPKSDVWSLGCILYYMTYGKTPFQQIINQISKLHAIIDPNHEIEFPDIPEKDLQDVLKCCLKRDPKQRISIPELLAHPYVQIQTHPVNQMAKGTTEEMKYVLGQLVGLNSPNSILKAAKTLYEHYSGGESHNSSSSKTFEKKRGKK

Chain of Aurora kinase B/Inner centromere protein (Q96GD4 whole entry): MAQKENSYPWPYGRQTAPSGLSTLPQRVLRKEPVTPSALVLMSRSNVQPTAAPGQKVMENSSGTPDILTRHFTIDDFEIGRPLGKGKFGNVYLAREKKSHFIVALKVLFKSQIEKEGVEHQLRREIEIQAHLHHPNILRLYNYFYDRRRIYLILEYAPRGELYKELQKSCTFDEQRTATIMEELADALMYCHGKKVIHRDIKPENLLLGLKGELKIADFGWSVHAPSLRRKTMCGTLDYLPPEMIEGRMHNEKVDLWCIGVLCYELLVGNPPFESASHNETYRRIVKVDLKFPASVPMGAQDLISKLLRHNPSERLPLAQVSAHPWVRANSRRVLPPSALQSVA
Chain of Aurora kinase B/Inner centromere protein (Q9NQS7 whole entry, further chain): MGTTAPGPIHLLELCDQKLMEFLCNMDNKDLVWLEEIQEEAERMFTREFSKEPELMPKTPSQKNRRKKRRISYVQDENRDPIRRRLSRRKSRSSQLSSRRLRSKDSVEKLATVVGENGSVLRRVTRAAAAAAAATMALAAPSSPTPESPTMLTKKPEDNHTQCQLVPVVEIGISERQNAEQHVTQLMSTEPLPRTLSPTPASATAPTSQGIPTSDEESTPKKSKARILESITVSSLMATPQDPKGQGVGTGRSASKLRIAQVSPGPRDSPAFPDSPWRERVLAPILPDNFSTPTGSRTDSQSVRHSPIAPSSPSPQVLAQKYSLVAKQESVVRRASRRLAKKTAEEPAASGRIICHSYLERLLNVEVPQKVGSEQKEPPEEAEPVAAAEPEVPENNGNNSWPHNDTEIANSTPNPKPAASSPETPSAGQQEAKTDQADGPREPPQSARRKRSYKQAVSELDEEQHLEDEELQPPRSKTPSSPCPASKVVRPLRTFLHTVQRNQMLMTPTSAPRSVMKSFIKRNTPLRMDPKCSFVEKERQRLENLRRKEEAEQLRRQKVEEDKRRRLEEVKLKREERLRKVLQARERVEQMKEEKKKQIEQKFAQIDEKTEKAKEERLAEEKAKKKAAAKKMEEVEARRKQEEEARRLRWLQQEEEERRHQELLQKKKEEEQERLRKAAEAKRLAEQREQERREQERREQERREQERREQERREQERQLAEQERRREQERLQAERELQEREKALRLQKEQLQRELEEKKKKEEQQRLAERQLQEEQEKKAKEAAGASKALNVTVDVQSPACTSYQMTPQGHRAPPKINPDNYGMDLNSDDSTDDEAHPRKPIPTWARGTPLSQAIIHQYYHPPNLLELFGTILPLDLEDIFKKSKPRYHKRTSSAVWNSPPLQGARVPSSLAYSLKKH

Row | Compound | solubility [1] | Ki (Aurora kinase A) [µM] | Ki [2] [µM] | Ki [3] [µM]
1 | CN(C)Cc1ccc(-c2c[nH]c(=O)c(N)c2)cc1 | – | > 100 | 12.9 | 367
2 | CN1CCN(c2ccc(C(=O)Nc3cc(-c4ccncc4)c[nH]c3=O)cc2)CC1 | Insoluble | – | – | –
3 | O=C(Nc1cc(-c2ccnc(NC3CC3)n2)c[nH]c1=O)c1ccccc1 | Insoluble | – | – | –

Results, then the molecule that gave them:

Row | solubility [1] | Ki (Aurora kinase A) [µM] | Ki [2] [µM] | Ki [3] [µM] | Compound
4 | Insoluble | – | – | – | O=C(Nc1cc(-c2ccncc2)c[nH]c1=O)c1ccccc1
5 | – | 99.5 | 103 | 236 | Cn1cc(-c2ccncc2)cc(N)c1=O
